Source: patent US20210142173A1, “NETWORK-BASED DEEP LEARNING TECHNOLOGY FOR TARGET IDENTIFICATION AND DRUG REPURPOSING” (THE CLEVELAND CLINIC FOUNDATION, priority 2019, published 2021)
“And” between values parts separate entries of the source, which are not always exact repeats. Identical values can stand only once. Like-named read-outs stand apart in the source and are kept apart here.

What was measured:
[1] = molecular target: T1, human RORγt (Homo sapiens, UniProt P51449); test: Cell-based GAL4-RORγt luciferase reporter assay in HEK293T cells; conditions: for inhibition at 10 µM: HEK-293T
T1 construct: expressed in transfected cells; host or cells: HEK293T
T1 sequence (P51449 269-508 limits assumed): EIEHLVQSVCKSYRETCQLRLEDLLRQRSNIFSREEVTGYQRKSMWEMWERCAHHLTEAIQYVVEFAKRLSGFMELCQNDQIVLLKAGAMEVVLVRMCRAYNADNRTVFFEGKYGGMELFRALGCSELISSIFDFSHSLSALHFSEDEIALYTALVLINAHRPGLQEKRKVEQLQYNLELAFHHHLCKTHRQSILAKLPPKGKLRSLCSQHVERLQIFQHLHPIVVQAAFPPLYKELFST
Procedure: FIG. 7A is a graph showing the inhibitory rate of various drugs as predicted by an example deep learning network system. […] In total, 18 purchasable drugs for RORγt were tested using a cell-based luciferase reporter assay. In this assay, GAL4-RORγt, with fused human RORγt LBD and GAL4 DNA binding domain are co-transfected into HEK293T cells with a luciferase reporter gene harboring the GAL4 response element33.

[2] = molecular target: DRD2 (Homo sapiens, UniProt P14416); conditions: published experimental data; cited from earlier work
[3] = molecular target: T2, ADRA2A (Homo sapiens, UniProt P08913); conditions: published experimental data; cited from earlier work
T2 sequence (P08913 1-465): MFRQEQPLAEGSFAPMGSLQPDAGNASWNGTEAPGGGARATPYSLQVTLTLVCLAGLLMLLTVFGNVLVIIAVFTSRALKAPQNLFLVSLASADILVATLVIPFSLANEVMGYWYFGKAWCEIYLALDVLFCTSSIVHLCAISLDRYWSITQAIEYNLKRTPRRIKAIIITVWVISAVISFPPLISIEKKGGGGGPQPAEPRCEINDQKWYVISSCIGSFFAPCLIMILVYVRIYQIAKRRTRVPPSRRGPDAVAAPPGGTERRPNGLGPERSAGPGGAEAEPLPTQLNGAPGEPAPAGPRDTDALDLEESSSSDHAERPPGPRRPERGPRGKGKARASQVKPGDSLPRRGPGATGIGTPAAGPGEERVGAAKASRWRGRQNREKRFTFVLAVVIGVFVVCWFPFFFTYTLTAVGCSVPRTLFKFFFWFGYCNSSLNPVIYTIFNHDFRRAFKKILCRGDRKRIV

[4] = molecular target: T3, RORγt (Mus musculus, UniProt P51450); test: Target occupancy in mouse brain with tracer T0901317; type: in vivo, mice
T3 construct: Concentration of T0901317 in mice brain samples; from tissue; host or cells: mouse brain
T3 sequence (P51450 1-495 isoform P51450-2): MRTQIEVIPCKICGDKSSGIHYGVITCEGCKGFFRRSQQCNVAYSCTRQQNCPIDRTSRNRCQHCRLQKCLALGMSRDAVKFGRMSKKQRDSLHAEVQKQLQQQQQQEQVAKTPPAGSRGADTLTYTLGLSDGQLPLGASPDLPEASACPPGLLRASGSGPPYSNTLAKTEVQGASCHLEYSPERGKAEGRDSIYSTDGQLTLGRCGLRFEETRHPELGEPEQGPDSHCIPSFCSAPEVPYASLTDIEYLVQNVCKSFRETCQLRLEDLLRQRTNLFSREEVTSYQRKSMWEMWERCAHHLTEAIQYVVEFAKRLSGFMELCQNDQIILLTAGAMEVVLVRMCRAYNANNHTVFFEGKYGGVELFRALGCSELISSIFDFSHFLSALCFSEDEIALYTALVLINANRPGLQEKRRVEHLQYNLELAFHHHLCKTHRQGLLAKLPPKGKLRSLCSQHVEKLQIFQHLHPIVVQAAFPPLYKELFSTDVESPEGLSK
Procedure: In the data presented in Table 2, T0901317, an orthosteric ligand of RORγt, was used as the tracer for assessing target occupancy of TPT. A Student's t-test was performed to obtain the p-value, and sterile water was used as vehicle.

[5] = tested on: HEK293T cells; test: HEK293T cell viability; type: cell-based, human; conditions: same concentration range as in the reporter assay
Text: (§1) FIG. 7B is a graph showing the inhibitory rate as a function of topotecan concentration. […] FIG. 7C is a graph showing the effect of topotecan on fluorescence intensity. […] FIG. 7D is a graph showing the effect of topotecan on cell viability.

[6] = tested on: EAE mice; test: Experimental autoimmune encephalomyelitis (EAE) model; type: in vivo, C57BL/6 mice
Procedure: FIG. 8A is a schedule of the application of an experimental autoimmune encephalomyelitis (EAE) model. EAE is a most frequently used experimental animal model for human multiple sclerosis. To investigate the therapeutic potential of topotecan in multiple sclerosis, EAE was induced in C57BL/6 mice by active immunization with […] in complete Freund's adjuvant (CFA) followed by pertussis toxin administration, according to the application schedule shown in FIG. 8A. Topotecan (10 mg/kg) or vehicle (sterile water, control) was administered intraperitoneally every four days during the course of EAE. Disease severity was assessed and graded using a five-point scoring system for 15 days.
During the course of EAE, changes in body weight also reflect disease severity. FIG. 8C is a graph showing weight loss in miss after the application of topotecan during EAE.
Multiple sclerosis is a chronic demyelinating disease accompanied by blood-brain barrier disruption. Near-infrared in vivo imaging is further utilized to evaluate the demyelination and blood-brain barrier leakage in EAE mice. A near-infrared fluorescent dye, 3, 3′-diethylthiatricarbocyanine iodide (DBT), easily enter into the brain and selectively binds to myelin fibers45. […] Cy5.5-BSA, a fluorescent BSA conjugate with bright near infrared fluorescence, penetrates the brain when the blood-brain barrier is disrupted.
T helper 17 (Th17) cells are a highly pro-inflammatory lineage of T helper cells defined by their production of interleukin 17 (IL-17)46. RORγt is necessary and sufficient for cytokine IL-17 expression in mouse and human Th17 cells46. Given the inhibitory effects of topotecan against RORγt, it was investigated whether topotecan affects IL-17 expression in EAE mice.

[7] = molecular target: T4, RORγt-LBD (Homo sapiens, UniProt P51449); test: Circular dichroism (CD) spectrum of RORγt; type: binding
T4 sequence (P51449 269-508 limits assumed): T1 sequence (P51449 269-508 limits assumed)
Text: FIG. 7F is a graph illustrating how topotecan alters the variation of circular dichroism (CD) spectrum of RORγt. CD is a powerful method for probing protein and ligand interactions in solution. […] FIG. 7G is a graph plotting CD Signal as a function of wavelength. […] FIG. 7H is an illustration showing how topotecan interacts with multiple important residues on human RORγt. The binding mode of topotecan to human RORγt is examined using molecular docking. […] Put together, by combining information gleaned from the deep learning network model and experimental assays, topotecan is identified as a novel, direct inhibitor of human RORγt.

[8] = molecular target: retinoid X receptor α LBD (RXRα-LBD) (Homo sapiens, UniProt P19793); test: HPLC direct interaction with RXRα-LBD; type: binding
[9] = molecular target: T4, RORγt-LBD; test: HTRF coactivator (SRC-1 peptide) recruitment assay; type: biochemical; conditions: read-out: IC50 (disruption of RORγt-LBD interaction with SRC-1 cofactor peptide)
Text: Nuclear receptors execute their versatile transcriptional functions by recruiting positive and negative regulatory proteins, known as coactivators or corepressors, respectively. Agonists promote interactions between nuclear receptors and coactivators, while antagonists either inhibit coactivator binding or facilitate corepressor recruitment. The functional change of the binding of topotecan on RORγt is investigated by utilizing a HTRF assay to evaluate ligand-induced coactivator recruitment to RORγt.
FIG. 7E is another graph showing the inhibitory rate of topotecan as a function of concentration as predicted by an example deep learning network system.

[10] = molecular target: firefly luciferase (Photinus pyralis, UniProt P08659); test: Control firefly luciferase activity experiment; type: cell-based; conditions: control experiment for promiscuous effects on luciferase
Text: as §1

[11] = Pharmacokinetics after intraperitoneal injection in mice; type: in vivo
Text: Where Cmax is the peak concentration, Tmax is the time between administration and reaching Cmax, and t1/2 is the elimination half-life.

[12] = molecular target: T4, RORγt-LBD; test: HPLC direct interaction with RORγt-LBD; type: binding
[13] = tested on: normal cell lines or other mice organs; test: Toxicity on normal cell lines or mice organs
Text: Accordingly, as predicted by the systems and methods presented herein, topotecan is a good drug candidate in possible treatment of MS.

[14] = at a concentration of 10 μM, GAL4-RORγt HEK293T luciferase reporter, read-out: inhibitory rate
[15] = read-out: inhibitory rate, at a concentration of 10 μM, GAL4-RORγt HEK293T luciferase reporter
[16] = 10 mg/kg intraperitoneally every four days
[17] = mouse, ip, brain, intraperitoneal injection in mice
[18] = mouse, ip, plasma, intraperitoneal injection in mice

Chain of retinoid X receptor α LBD (RXRα-LBD) (P19793 227-458 limits assumed, species assumed): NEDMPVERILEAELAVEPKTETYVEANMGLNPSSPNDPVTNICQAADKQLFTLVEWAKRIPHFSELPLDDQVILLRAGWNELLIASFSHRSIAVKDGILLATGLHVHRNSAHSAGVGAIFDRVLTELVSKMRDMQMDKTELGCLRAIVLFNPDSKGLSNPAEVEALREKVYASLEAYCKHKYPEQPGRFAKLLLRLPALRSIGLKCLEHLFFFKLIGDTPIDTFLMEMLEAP
Chain of DRD2 (P14416 whole entry): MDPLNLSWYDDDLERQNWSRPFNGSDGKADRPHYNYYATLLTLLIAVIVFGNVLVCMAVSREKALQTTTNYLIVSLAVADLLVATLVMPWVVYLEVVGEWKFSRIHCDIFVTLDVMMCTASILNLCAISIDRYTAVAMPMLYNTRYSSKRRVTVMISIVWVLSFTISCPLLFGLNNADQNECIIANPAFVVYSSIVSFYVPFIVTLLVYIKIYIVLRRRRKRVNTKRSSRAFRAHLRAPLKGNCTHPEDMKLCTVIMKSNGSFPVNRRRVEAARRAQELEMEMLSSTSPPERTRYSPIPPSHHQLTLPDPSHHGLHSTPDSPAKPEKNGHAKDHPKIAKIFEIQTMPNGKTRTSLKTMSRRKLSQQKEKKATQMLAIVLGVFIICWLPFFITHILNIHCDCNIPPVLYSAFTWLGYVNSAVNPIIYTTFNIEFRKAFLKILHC
Chain of firefly luciferase (P08659 whole entry): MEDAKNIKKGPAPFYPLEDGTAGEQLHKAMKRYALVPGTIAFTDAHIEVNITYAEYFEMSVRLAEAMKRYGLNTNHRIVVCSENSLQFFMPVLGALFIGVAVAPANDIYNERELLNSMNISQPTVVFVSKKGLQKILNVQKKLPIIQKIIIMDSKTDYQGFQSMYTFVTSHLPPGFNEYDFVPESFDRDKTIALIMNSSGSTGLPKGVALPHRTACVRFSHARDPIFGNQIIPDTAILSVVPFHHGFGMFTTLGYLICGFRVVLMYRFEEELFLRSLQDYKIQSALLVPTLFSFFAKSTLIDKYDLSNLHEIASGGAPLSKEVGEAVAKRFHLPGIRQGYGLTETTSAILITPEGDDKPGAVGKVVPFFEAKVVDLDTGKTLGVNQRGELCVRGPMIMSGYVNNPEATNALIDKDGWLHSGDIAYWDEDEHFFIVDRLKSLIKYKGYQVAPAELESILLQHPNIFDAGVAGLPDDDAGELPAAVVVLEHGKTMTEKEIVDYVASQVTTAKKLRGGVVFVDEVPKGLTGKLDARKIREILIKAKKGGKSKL

In the case of `CC(C)(Oc1ccc(CCNC(=O)c2ccc(Cl)cc2)cc1)C(=O)O` [bezafibrate], the inhibition at 10 µM [1, 14] is reported as > 30%.
In the case of `CC(CCc1ccc(O)cc1)NCCc1ccc(O)c(O)c1` (stereo not drawn) [dobutamine], the IC50 [2] is given as 8.22 µM and the IC50 [3] is given as 10.8 µM.
In the case of `C#C[C@]1(O)CC[C@H]2[C@@H]3CCC4=CC(=O)CC[C@@H]4[C@H]3CC[C@@]21C` [norethindrone], the inhibition at 10 µM [1, 15] is reported as > 30%.
For `CN(CCOc1ccc(CC2SC(=O)NC2=O)cc1)c1ccccn1` (stereo not drawn) [rosiglitazone], the inhibition at 10 µM [1, 14] was > 30%.
In the case of `CC(=O)S[C@@H]1CC2=CC(=O)CC[C@]2(C)[C@H]2CC[C@@]3(C)[C@@H](CC[C@@]34CCC(=O)O4)[C@H]12` [spironolactone], the inhibition at 10 µM [1, 15] is reported as > 30%.
With `CCOC(=O)c1ccc(C#Cc2ccc3c(c2)C(C)(C)CCS3)nc1` [tazarotene] the inhibition at 10 µM [1, 14] was > 30%.
For `CC[C@@]1(O)C(=O)OCc2c1cc1n(c2=O)Cc2cc3c(CN(C)C)c(O)ccc3nc2-1` [topotecan], the “Concentration of T0901317 in mice brain samples” value ([4]; individual mice 1-5, TPT-treated, tracer T0901317, listed as TPT) was 2788.48 ng/g and 4396.96 ng/g and 3365.97 ng/g and 3736.16 ng/g and 3212.96 ng/g, the “Concentration of T0901317 in mice brain samples, Mean” value ([4]; mean of 5 TPT-treated mice, vehicle mean 4426.55, P-value 0.0029) was 3500.11 ng/g and the “effect on HEK293T cell viability” value [5] was “minor effect”. For the same molecule, the “EAE induced body weight loss” value [6, 16] was “more tolerable to EAE induced body weight loss than vehicle-treated mice”, the “onset of clinical symptoms” value [6, 16] was “significantly delay in the onset of clinical symptoms” and the clinical score ([6]; 10 mg/kg intraperitoneally every four days, five-point scoring) was “observable reduction of clinical score”. For the same molecule, the “IL-17 production in brain and spinal cords” value ([6]; ELISA) was “significantly reduces IL-17 production”, the “demyelination in white matter (LFB staining)” value ([6]; day 20 after immunization) was “demyelination is significantly reversed” and the “infiltration of leukocytes in spinal cord (H&E staining)” value ([6]; day 20 after immunization) was “infiltration is largely reduced”. The “DBT near-infrared fluorescence (myelin imaging)” value ([6]; near-infrared in vivo imaging) was “reverses fluorescence”, the “accumulation of Cy5.5-BSA fluorescent probe in the brain (blood-brain barrier leakage)” value ([6]; near-infrared in vivo imaging) was “higher accumulation of the fluorescent probe in the brain of vehicle treated mice as compared to the topotecan treatment group” and the “change of CD spectrum of RORγt (direct binding)” value [7] was “alters the variation of CD spectrum of RORγt”. For the same molecule, the “direct interaction by HPLC” value [8] was “not with retinoid X receptor α LBD”, the IC50 [9] was 6.65 ± 0.02 µM and the IC50 ([1]; GAL4-RORγt expressing HEK293T cells, read-out: IC50 (antagonistic activity)) was 0.43 ± 0.02 µM. For the same molecule, the inhibitory rate ([1]; at a concentration of 10 μM, GAL4-RORγt HEK293T luciferase reporter, 10 µM) was 71.0%, the “suppression of control firefly luciferase activity” value [10] was “no suppression is observed” and the brain penetration ([11]; mouse models) was “ideal brain penetration”. For the same molecule, the AUC(0-inf) [11, 17] was 173 ng·h/mL, the AUC(0-t) [11, 17] was 170 ng·h/mL and the Cmax [11, 17] was 121 ng/mL. It also gave a Tmax [11, 17] of 30 min, an AUC(0-inf) [11, 18] of 3310 ng·h/mL and an AUC(0-t) [11, 18] of 3280 ng·h/mL. The Cmax [11, 18] was 3250 ng/mL, the Tmax [11, 18] was 30 min and the half-life [11, 18] was 289 min. For the same molecule, the “direct interaction by HPLC” value [12] was “directly interacts with RORγt-LBD” and the “toxicity on normal cell lines or other mice organs” value [13] was “very low toxicity”.
